One block for each compound: values may come before it.
Key:
MPO [1] = experiment: MR imaging of complete Freund's adjuvant (CFA) subcutaneous inflammation; format: in vivo, mouse; settings: wild-type mice
Experimental: The efficacy of mcMPO-Gd was validated in a well-established mouse model of subcutaneous inflammation induced by complete Freund's adjuvant (CFA). Six to ten weeks old female C57BL/6J mice (Jackson Laboratories, Bar Harbor, ME) and MPO-deficient mice were used for this experiment. The mice were injected subcutaneously with a 1:1 (v:v) emulsion of CFA:PBS (40 μL of total volume) on one forearm under isoflurane anesthesia. PBS (40 μL) was injected on the other side as control. After 24 h, gadolinium agents (mcMPO-Gd in PBS containing 10% DMSO and 20% N,N-dimethylacetamide, or MPO-Gd in PBS containing 5% DMSO, or Dotarem in PBS) were administered through tail vein injection and the mice imaged at 0 min, 15 min, 30 min, 45 min, and 60 min using serial T1-weighted imaging (TR:900 ms, TE: 13.59 ms, 0.156×0.156×0.5 mm Voxels) with chemical fat suppression and respiratory gating on a 4.7 T small animal MR scanner (Bruker, Cambridge, MA) with a 3-cm quadrature volume coil (Rapid MR International, Germany). Regions of interest (ROI) were drawn manually by a person blinded to the identity of the mice or imaging agent used, and the contrast-to-noise ratios (CNRs) were calculated as CNR=(SIlesion−SIskeletal muscle)/SDbackground.
24 h after injection of a CFA emulsion into the shoulder of mice, contrast agents (0.3 mol/kg) were injected via the tail vein and the animals imaged.

MPO [2] = biological target: T1, MPO (Mus musculus, UniProt P11247); experiment: MR imaging of tandem stenosis (TS) model of atherosclerotic plaque instability, intervention with AZM198; format: in vivo; settings: TS Apoe^−/− mice, 7 weeks after TS surgery, 0.3 mmol/kg i.v.
T1 construct: from tissue; host or cells: carotid / brachiocephalic plaque of living male Apoe-/- mice
T1 sequence (P11247 139-718): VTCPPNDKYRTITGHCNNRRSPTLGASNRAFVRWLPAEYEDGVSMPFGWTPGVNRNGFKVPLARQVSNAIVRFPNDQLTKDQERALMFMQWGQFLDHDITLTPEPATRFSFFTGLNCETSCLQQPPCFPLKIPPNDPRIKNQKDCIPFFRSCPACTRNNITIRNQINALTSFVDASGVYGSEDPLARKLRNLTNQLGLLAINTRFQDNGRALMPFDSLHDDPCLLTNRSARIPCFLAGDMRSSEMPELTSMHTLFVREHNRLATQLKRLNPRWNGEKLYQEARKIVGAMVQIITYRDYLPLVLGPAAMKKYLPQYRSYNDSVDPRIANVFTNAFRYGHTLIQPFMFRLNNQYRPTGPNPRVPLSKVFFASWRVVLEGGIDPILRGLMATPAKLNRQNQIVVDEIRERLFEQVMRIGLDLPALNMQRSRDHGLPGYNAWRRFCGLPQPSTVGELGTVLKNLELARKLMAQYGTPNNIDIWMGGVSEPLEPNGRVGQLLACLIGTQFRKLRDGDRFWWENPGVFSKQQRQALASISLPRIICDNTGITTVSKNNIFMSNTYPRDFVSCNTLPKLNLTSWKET
Text: Six weeks after commencement of WD, tandem stenosis (TS) was introduced into the mice as previously described (see e.g., Rashid et al, Eur. Heart J., 2018, 39:3301-3310). Male Apoe^-/- mice were anesthetized with 4% isoflurane. The right common carotid artery was dissected from circumferential connective tissues. Two stenoses were placed by tying a 6-0 blue-braided polyester fiber suture (TICRON 0.7 Metric) around the exposed artery, with the distal stenosis 1 mm from the carotid artery bifurcation and the proximal stenosis 3 mm from the distal stenosis. Blood flow was measured before and after the addition of each ligature using a perivascular flow module (Transonic, TS420) and a 0.7 mm perivascular flow probe (Transonic MA0.7PSB). Flow for each ligature in the TS was defined as 70% of baseline flow after addition of the distal ligature and 20% of baseline flow after addition of the proximal ligature. […] The contrast-to-noise ratio (CNR) was calculated as follows: CNR=([…] muscle)/SDbackground. The mean CNRs of three consecutive slices in plaque with unstable phenotype and corresponding segments of the left carotid artery (plaque-free), in addition to 1-2 consecutive slices in the brachiocephalic trunk (stable plaque), were calculated. Segmental enhancement attributable to MPO was assessed by calculating the ΔCNR=CNRpost-contrast-CNRpre-contrast. […]

[3] = biological target: bovine serum albumin (BSA) (Bos taurus, UniProt P02769); experiment: Binding to proteins (BSA) after activation by MPO, T1 relaxation; format: biochemical; settings: for T1 (Before activation, ms): 0.5 mM agent, PBS; for T1 (Before activation, ms) / T1 (After activation, ms) / T1 change(%): MPO/GOX, 40° C.; for T1 (After activation, ms) / T1 change(%): 1 h
bovine serum albumin (BSA), sequence (P02769 25-607): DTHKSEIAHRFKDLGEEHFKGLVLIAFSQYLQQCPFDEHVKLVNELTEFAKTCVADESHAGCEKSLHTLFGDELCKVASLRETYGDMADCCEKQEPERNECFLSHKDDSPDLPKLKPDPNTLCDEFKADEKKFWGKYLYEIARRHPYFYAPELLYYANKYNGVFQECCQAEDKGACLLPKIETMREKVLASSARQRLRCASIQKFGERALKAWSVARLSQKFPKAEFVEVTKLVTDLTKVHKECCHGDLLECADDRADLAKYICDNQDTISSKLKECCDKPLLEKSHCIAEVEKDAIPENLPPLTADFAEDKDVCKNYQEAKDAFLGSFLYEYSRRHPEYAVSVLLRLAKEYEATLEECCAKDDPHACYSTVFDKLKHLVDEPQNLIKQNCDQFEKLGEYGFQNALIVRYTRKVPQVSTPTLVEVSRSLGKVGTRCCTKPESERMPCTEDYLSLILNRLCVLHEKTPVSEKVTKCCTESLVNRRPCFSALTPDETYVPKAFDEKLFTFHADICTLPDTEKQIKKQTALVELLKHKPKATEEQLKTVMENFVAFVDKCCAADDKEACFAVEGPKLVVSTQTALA
Experimental: The capability of mcMPO-Gd and MPO-Gd to bind to bovine serum albumin (BSA) after activation by MPO was evaluated. […] The relaxation rates were measured as described above.

[4] = 0.47 T, PBS, 40° C.; determined previously (Querol et al); cited from earlier work
[5] = Kinetic stability: transmetallation with Zn^2+ (relaxation rate R1 over 95 h); format: physicochemical; settings: 1 mM agent, ZnCl2 2.5 mM, PBS, 40° C., 0.47 T
Experimental: Am. Chem. Soc., 2010, 132:168-177; and Laurent et al, Invest. Radiol., 2001, 36:115-122). mcMPO-Gd or MPO-Gd (1 mM) was incubated with ZnCl2 (2.5 mM) in PBS at 40° C., and the relaxation rates (R1) were measured for 95 h using an inversion-recovery pulse sequence on the Bruker Minispec (Bruker Analytics, North Billerica, MA) at 0.47 T (20 MHz) at 40° C. The stability of mcMPO-Gd was evaluated by kinetic index (R1(t)/R1(t=0)=0.8) and thermodynamic index (R1(72 h)/R1(t=0)) and compared with MPO-Gd (see e.g., Rodriguez et al, J. Am. Chem. […] Org. Chem., 2006, 71:3332-3334). […] T1 relaxation time was measured as previously described at different time points (see e.g., Rodriguez et al, J. Am. Chem. Soc., 2010, 132:168-177). […] Radiol., 2001, 36:115-122) indicating high stability of mcMPO-Gd, consistent with a previous report on the kinetic stability of the macrocyclic GBCAs (see e.g., Laurent et al, Contrast Media Mol. Imaging 2006, 1:128-137).

[6] = transmetallation with Zn^2+, cited from earlier work

SMILES: CNC[C@H](O)[C@@H](O)[C@H](O)[C@H](O)CO.O=C([O-])CN1CCN(CC(=O)[O-])CCN(CC(=O)O)CCN(CC(=O)[O-])CC1.[Gd+3] [Dotarem, gadoterate meglumine]
- contrast-to-noise ratio (CNR) over time (MPO [1]; i.v., over 60 min): decreased rapidly over time

- ΔCNR in unstable plaque (MPO [2]): 15.0
- improvement in T1 shortening in the presence of BSA ([3]; BSA vs no BSA, after MPO activation): 22%
- T1 (Before activation, ms) ([3]; BSA): 381 ms
- T1 (After activation, ms) ([3]; BSA): 246 ms
- T1 change(%) ([3]; BSA): 54%
- T1 (Before activation, ms) ([3]; No BSA): 375 ms
- T1 (After activation, ms) ([3]; No BSA): 283 ms
- T1 change(%) ([3]; No BSA): 32%
- R1(t=72 h)/R1(t=0) (long-term / thermodynamic index) [5]: 0.76
- t (min) for R1(t)/R1(t=0) = 0.8 (kinetic / ratio index) [5]: 2866 min
SMILES: O=C([O-])CN(CCN(CC(=O)[O-])CC(=O)NCCc1c[nH]c2ccc(O)cc12)CCN(CC(=O)[O-])CC(=O)NCCc1c[nH]c2ccc(O)cc12.[Gd+3] [MPO-Gd, bis-5-HT-Gd-DTPA]
- increase in activation ratio (AR=CNR(post-contrast)/CNR(first post-contrast)) (MPO [1]; 60 min): 2 fold
- relaxivity (r1) [4]: 4.3 mM⁻¹ s⁻¹

SMILES: CNC(=O)CN(CCN(CCN(CC(=O)[O-])CC(=O)NC)CC(=O)[O-])CC(=O)[O-].[Gd+3] [BMA—DTPA—Gd, BMA-Gd-DTPA]
- R1(t=72 h)/R1(t=0) (long-term index) ([6]; literature value (Laurent et al)): 0.09
- t (min) for R1(t)/R1(t=0) = 0.8 ([6]; literature value): 50 to 60 min
